This is an account of results in patent US7723112B2, “Compositions and methods for treating and diagnosing cancer” (The Regents of the University of Michigan, priority 2005, dated 2010).

Structures are written as SMILES. Where two headings read alike, the source gives them in different places.

This experiment deals with UM-C4 tumor cells. Particulars: monitored four months. From the text:
Mice were monitored for tumor growth over a period of four months and scored as either positive or negative for tumor growth such that Poisson statistics could be done to assess TG cell frequency among the input population.

For the molecule `O=P1(N(CCCl)CCCl)NCCCO1` (stereo not shown) [CPA, Cyclophosphamide], the “mice developing tumors / mice injected” value runs as follows: (input of 56 bulk tumor cells from CPA-treated tumors) 4/8; (input of 167 bulk tumor cells from CPA-treated tumors) 5/8; (input of 500 bulk tumor cells from CPA-treated tumors) 9/9. In addition, under “input of 1,500 bulk tumor cells from CPA-treated tumors”, the mice developing tumors result was “All eight”.
